One assay concerns the target T1, Aurora A (Homo sapiens, UniProt O14965).
T1 sequence (O14965 1-403): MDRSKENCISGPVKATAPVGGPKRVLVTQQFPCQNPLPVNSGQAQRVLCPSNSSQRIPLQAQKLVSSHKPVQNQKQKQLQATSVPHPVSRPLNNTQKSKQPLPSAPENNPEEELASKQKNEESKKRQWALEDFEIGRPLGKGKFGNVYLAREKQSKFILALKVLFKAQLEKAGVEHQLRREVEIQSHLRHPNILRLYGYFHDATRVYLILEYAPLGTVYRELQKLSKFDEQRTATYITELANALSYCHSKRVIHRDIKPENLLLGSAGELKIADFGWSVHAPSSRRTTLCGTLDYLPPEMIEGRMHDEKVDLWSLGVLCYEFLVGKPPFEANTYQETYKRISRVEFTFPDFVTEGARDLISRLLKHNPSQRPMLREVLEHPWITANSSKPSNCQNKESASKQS
As to the kind of experiment: Recombinant mitotic kinase assay, Aurora A. It counts as biochemical. The conditions noted are these: recombinant kinases. Here is the method:
(§1) […] assays were performed with recombinant protein of the indicated mitotic kinase (left) and AMPK family kinases (right) in the presence of THZ-4-63-1. […] Cells were treated with nocodazole (100 ng/ml) for 18 h or not treated (Asyn., asynchronous). Nocodazole-arrested mitotic cells (M) were isolated via shake-off. The attached cells enriched in G2 phase (G2) were harvested. A portion of the mitotic cells were washed off nocodazole and released into G1 phase after 4 hours of incubation (G1). […] In Panel D, mitotic lysates were prepared from the indicated cells, and treated with λ-phosphatase at 30° C. In Panel E, nocodazole-arrested mitotic cells were treated with increasing concentration of THZ-4-63-1 for 30 min. Cell lysates were subjected to immunoblotting.
(§2) To discover a selective MELK inhibitor, a few molecule scaffolds with the potential of binding to MELK were identified, including 2,4-disubstituted pyrimidines and benzonaphthyridinones. […] To investigate if THZ-4-63-1 confers selective inhibition on MELK, we tested its effect on other mitotic kinases. In assays using recombinant kinases, MELK kinase activity was 20-fold more sensitive to THZ-4-63-1, than that of Aurora A, Aurora B, CDK1, or PLK1 (FIG. 1B).

The next assay has as its target Aurora B (Homo sapiens, UniProt Q96GD4). As to the kind of experiment: Recombinant mitotic kinase assay, Aurora B. It counts as biochemical. The settings on record: recombinant kinases. Here is the method:
as §1, §2

A further assay deals with MARK1 (Homo sapiens, UniProt Q9P0L2). In words: Recombinant AMPK family kinase assay, MARK1. It counts as biochemical. The settings on record: recombinant kinases. Here is the method: as §1, §2
Sequence of MARK1 (Q9P0L2 whole entry, species assumed): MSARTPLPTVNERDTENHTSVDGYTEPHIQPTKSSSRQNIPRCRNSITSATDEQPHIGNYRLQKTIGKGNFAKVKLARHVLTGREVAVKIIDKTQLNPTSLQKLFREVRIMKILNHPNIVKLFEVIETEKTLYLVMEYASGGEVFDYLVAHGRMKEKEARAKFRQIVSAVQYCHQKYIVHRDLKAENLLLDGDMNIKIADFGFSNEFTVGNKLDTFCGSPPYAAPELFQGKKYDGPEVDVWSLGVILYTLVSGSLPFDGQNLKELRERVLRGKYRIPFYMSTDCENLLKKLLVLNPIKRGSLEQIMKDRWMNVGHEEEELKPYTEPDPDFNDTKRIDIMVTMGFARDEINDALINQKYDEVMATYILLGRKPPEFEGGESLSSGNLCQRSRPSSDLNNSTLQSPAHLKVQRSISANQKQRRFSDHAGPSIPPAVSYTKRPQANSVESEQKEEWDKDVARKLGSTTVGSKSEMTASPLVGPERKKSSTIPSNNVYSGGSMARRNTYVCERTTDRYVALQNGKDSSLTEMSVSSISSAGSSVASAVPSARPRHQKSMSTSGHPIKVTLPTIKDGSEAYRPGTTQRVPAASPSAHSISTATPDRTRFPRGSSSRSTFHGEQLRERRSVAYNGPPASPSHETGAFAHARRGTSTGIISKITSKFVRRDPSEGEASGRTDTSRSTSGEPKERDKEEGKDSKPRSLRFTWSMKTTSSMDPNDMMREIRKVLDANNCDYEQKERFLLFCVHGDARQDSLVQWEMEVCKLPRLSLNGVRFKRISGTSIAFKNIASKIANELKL
For assay [1], the system named is metaphase chromosome alignment. As to the kind of experiment: Metaphase chromosome alignment, immunofluorescence after MG132. The conditions noted are these: 5 μM for 4 h followed by MG132 (10 μM) 1 h. It counts as cell-based. As for the experimental part:
U2OS-GFP-H2B cells were treated with vehicle control (0.02% DMSO, v/v) or 1 μM THZ-4-63-1, and subjected to live imaging. Time is given in hours:minutes, relative to the initial time of drug treatment. The arrow points to chromosomes that haven't incorporated into the metaphase plate. […] MDA-MB-468 cells expressing tet-on-shMELK and GFPH2B cells were treated with doxycycline for three days, before subjected to live imaging. Panel D contains images of immunoblotting of lysates from cells treated as in Panel C. Panel E contains images showing mitotic cell death in a cell treated with THZ-4-63-1. The table indicates the quantification of cell death events. Panel F contains images showing that treatment with THZ-4-63-1 impairs chromosome alignment. Cells were treated with DMSO control, or THZ-4-63-1 (5 μM) for 4 hours, followed by MG132 (10 μM) for 1 h. Cells were fixed and stained with anti-CREST, anti-α-tubulin, and DAPI to visualize chromosomes and kinetochores. The histogram indicates the quantifications of cells in metaphase with misaligned chromosomes.
Indeed, we observed in asynchronized cells that MELK inhibition caused the appearance of scatted chromosome near the metaphase plate (arrowed, FIG. 2A). […]

Sequence of Aurora B (Q96GD4 whole entry): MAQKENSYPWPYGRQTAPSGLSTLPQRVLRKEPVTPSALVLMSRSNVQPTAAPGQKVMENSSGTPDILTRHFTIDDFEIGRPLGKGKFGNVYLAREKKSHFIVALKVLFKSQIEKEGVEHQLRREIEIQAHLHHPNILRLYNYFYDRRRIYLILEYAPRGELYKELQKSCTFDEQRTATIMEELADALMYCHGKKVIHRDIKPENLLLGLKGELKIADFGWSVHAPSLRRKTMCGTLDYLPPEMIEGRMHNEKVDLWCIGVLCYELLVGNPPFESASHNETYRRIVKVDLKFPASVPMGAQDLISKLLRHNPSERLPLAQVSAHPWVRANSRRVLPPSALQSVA

For the compound `CN(C)Cc1ccc(-n2c(=O)ccc3cnc4ccc(-c5cc(Cl)c(O)c(Cl)c5)cc4c32)cc1` [THZ-4-63-1], at Aurora A, the “MELK kinase activity more sensitive than that of Aurora A” value was found to be 20 fold. Also, the “MELK kinase activity more sensitive than that of Aurora B” value on Aurora B turned out to be 20 fold. Besides, the “Selectivity for MELK over MARK1” value on MARK1 is “preferentially targets MELK”. In addition, the “Cells with failure in metaphase chromosome alignment” value in assay [1] is “approximately 80%”.

The values are drawn from patent US10544138B2, “Tricyclic kinase inhibitors of MELK and methods of use” (Dana-Farber Cancer Institute, Inc., priority 2015, dated 2020).
